Structures are written as SMILES. Activity calls are given as the source filed them. The calls are words filed in the database; no cut-off is given here.

A word on the IC50: it is the concentration needed to halve the response being measured.

For data set [1], the target named is RNA-directed RNA polymerase (Hepacivirus hominis, UniProt O39930). Put plainly: Enzymatic assay with HCV NS5B polymerase D21.
Data set [2] concerns the target 5-hydroxytryptamine receptor 1B (Homo sapiens) (UniProt P28222). Nature of the data set: 5HT1B(H) Eurofins SafetyScreen44 (BI). The conditions noted are these: filed as antagonist, Compound concentration 10.0 uM.
In data set [3] the target is Cannabinoid receptor 1 (Homo sapiens) (UniProt P21554). Put plainly: CB1(HU)_AGON Eurofins SafetyScreen44 (BI). The conditions noted are these: filed as agonist; Compound concentration 10.0 uM.
Data set [4] deals with Prostaglandin G/H synthase 1 (Homo sapiens) (UniProt P23219). Nature of the data set: COX-1 Eurofins SafetyScreen44 (BI). The conditions noted are these: Compound concentration 10.0 uM.
Data set [5] deals with Prostaglandin G/H synthase 2 (Homo sapiens) (UniProt P35354). Nature of the data set: COX-2 Eurofins SafetyScreen44 (BI). As to conditions: Compound concentration 10.0 uM.
In data set [6] the target is Kappa-type opioid receptor (Homo sapiens) (UniProt P41145). Nature of the data set: KAPPA(KOP)_HU Eurofins SafetyScreen44 (BI). As to conditions: Compound concentration 10.0 uM.
In data set [7] the target is 5-hydroxytryptamine receptor 1A (Homo sapiens) (UniProt P08908). Put plainly: 5HT1A/H Eurofins SafetyScreen44 (BI). The conditions noted are these: Compound concentration 10.0 uM.
Data set [8] has as its target 5-hydroxytryptamine receptor 2A (Homo sapiens) (UniProt P28223). Nature of the data set: 5HT2AH_AGON Eurofins SafetyScreen44 (BI). The conditions noted are these: filed as agonist, Compound concentration 10.0 uM.
The target in data set [9] is 5-hydroxytryptamine receptor 2B (Homo sapiens) (UniProt P41595). Put plainly: 5HT2B/H AG Eurofins SafetyScreen44 (BI). As to conditions: filed as agonist, Compound concentration 10.0 uM.
For data set [10], the target named is 5-hydroxytryptamine receptor 3A (Homo sapiens) (UniProt P46098). Nature of the data set: 5HT3/H Eurofins SafetyScreen44 (BI). The conditions noted are these: Compound concentration 10.0 uM.
The target in data set [11] is Adenosine receptor A2a (Homo sapiens) (UniProt P29274). Put plainly: A2A/H Eurofins SafetyScreen44 (BI). As to conditions: filed as antagonist, Compound concentration 10.0 uM.
The target of data set [12] is Angiotensin-converting enzyme (Homo sapiens) (UniProt P12821). Nature of the data set: ACE(HU_AMTCH400) Eurofins SafetyScreen44 (BI). The conditions noted are these: Compound concentration 10.0 uM.
Data set [13] has as its target Alpha-1A adrenergic receptor (Homo sapiens) (UniProt P35348). Put plainly: ALPHA1AH_ANTAG Eurofins SafetyScreen44 (BI). As to conditions: filed as antagonist, Compound concentration 10.0 uM.
For data set [14], the target named is Alpha-2A adrenergic receptor (Homo sapiens) (UniProt P08913). Put plainly: ALPHA2A/HU Eurofins SafetyScreen44 (BI). The conditions noted are these: Compound concentration 10.0 uM.
For data set [15], the target named is Androgen receptor (Homo sapiens) (UniProt P10275). Put plainly: ANDROGEN/H Eurofins SafetyScreen44 (BI). As to conditions: Compound concentration 10.0 uM.
Data set [16] concerns the target Beta-1 adrenergic receptor (Homo sapiens) (UniProt P08588). Put plainly: BETA1/HUM Eurofins SafetyScreen44 (BI). As to conditions: Compound concentration 10.0 uM.
Data set [17] deals with Beta-2 adrenergic receptor (Homo sapiens) (UniProt P07550). Put plainly: BETA2/HUM Eurofins SafetyScreen44 (BI). The conditions noted are these: filed as antagonist, Compound concentration 10.0 uM.
Data set [18] has as its target Gamma-aminobutyric acid receptor subunit alpha-1 (Rattus norvegicus) (UniProt P62813). Nature of the data set: BZD/CENTR/R Eurofins SafetyScreen44 (BI). As to conditions: Compound concentration 10.0 uM.
The target in data set [19] is Voltage-dependent L-type calcium channel subunit alpha-1C (dihydropyridine site) (Rattus norvegicus, UniProt P22002). Nature of the data set: CA+/DHPSI/R Eurofins SafetyScreen44 (BI). Set-up: mode of action inhibitor. The conditions noted are these: rat brain, probe [3H](+)PN200-110, compound concentration 10 uM, read-out: % Ctrl.
For data set [20], the target named is Cannabinoid receptor 2 (Homo sapiens) (UniProt P34972). Nature of the data set: CB2/PERIPH/H Eurofins SafetyScreen44 (BI). The conditions noted are these: Compound concentration 10.0 uM.
Data set [21] has as its target Cholecystokinin receptor type A (Homo sapiens) (UniProt P32238). Put plainly: CCKA/H Eurofins SafetyScreen44 (BI). The conditions noted are these: Compound concentration 10.0 uM.
Data set [22] has as its target D(1A) dopamine receptor (Homo sapiens) (UniProt P21728). Put plainly: D1/H Eurofins SafetyScreen44 (BI). The conditions noted are these: filed as antagonist, Compound concentration 10.0 uM.
Data set [23] has as its target D(2) dopamine receptor (Homo sapiens) (UniProt P14416). Nature of the data set: D2SH_AGON Eurofins SafetyScreen44 (BI). The conditions noted are these: filed as agonist, Compound concentration 10.0 uM.
The target in data set [24] is Sodium-dependent dopamine transporter (Homo sapiens) (UniProt Q01959). Put plainly: DATRANS/HUM Eurofins SafetyScreen44 (BI). The conditions noted are these: Compound concentration 10.0 uM.
The target of data set [25] is Delta-type opioid receptor (Homo sapiens) (UniProt P41143). Nature of the data set: DELTA2/H Eurofins SafetyScreen44 (BI). As to conditions: Compound concentration 10.0 uM.
Data set [26] addresses Endothelin-1 receptor (Homo sapiens) (UniProt P25101). Put plainly: ETA/H Eurofins SafetyScreen44 (BI). The conditions noted are these: Compound concentration 10.0 uM.
In data set [27] the target is Glucocorticoid receptor (Homo sapiens) (UniProt P04150). Put plainly: GCORTICOID/H Eurofins SafetyScreen44 (BI). As to conditions: Compound concentration 10.0 uM.
The target in data set [28] is Histamine H1 receptor (Homo sapiens) (UniProt P35367). Put plainly: H1/PYRIL/HS Eurofins SafetyScreen44 (BI). As to conditions: Compound concentration 10.0 uM.
In data set [29] the target is Histamine H2 receptor (Homo sapiens) (UniProt P25021). Nature of the data set: H2/APT/HS Eurofins SafetyScreen44 (BI). The conditions noted are these: filed as antagonist, Compound concentration 10.0 uM.
Data set [30] deals with hERG (KCNH2) (Homo sapiens, UniProt Q12809). Nature of the data set: HERG_DOFETILIDE Eurofins SafetyScreen44 (BI). Set-up: mode of action inhibitor. As to conditions: probe [3H] Dofetilide, compound concentration 10 uM, read-out: % Ctrl.
Data set [31] deals with Potassium voltage-gated channel subfamily V member 1 (Rattus norvegicus) (UniProt P97557). Put plainly: K+/VOLT/RA Eurofins SafetyScreen44 (BI). The conditions noted are these: Compound concentration 10.0 uM.
For data set [32], the target named is Tyrosine-protein kinase Lck (Homo sapiens) (UniProt P06239). Nature of the data set: LCK_CE Eurofins SafetyScreen44 (BI). As to conditions: Compound concentration 10.0 uM.
Data set [33] addresses Muscarinic acetylcholine receptor M1 (Homo sapiens) (UniProt P11229). Put plainly: M1/H Eurofins SafetyScreen44 (BI). The conditions noted are these: Compound concentration 10.0 uM.
In data set [34] the target is Muscarinic acetylcholine receptor M2 (Homo sapiens) (UniProt P08172). Put plainly: M2/H Eurofins SafetyScreen44 (BI). As to conditions: filed as antagonist, Compound concentration 10.0 uM.
Data set [35] addresses Muscarinic acetylcholine receptor M3 (Homo sapiens) (UniProt P20309). Put plainly: M3/H Eurofins SafetyScreen44 (BI). As to conditions: Compound concentration 10.0 uM.
Data set [36] addresses MAO-A (amine oxidase [flavin-containing] A) (Rattus norvegicus, UniProt P21396). Nature of the data set: MAO-A_ANTAG Eurofins SafetyScreen44 (BI). Set-up: mode of action antagonist; scale not given: the % may be the effect or the level left. The conditions noted are these: compound concentration 10 uM, read-out: % Ctrl.
The target in data set [37] is Mu-type opioid receptor (Homo sapiens) (UniProt P35372). Put plainly: MU/H Eurofins SafetyScreen44 (BI). As to conditions: Compound concentration 10.0 uM.
The target of data set [38] is Sodium channel regulatory subunit beta-1 (Rattus norvegicus) (UniProt Q00954). Put plainly: NA+/SITE2/R Eurofins SafetyScreen44 (BI). The conditions noted are these: Compound concentration 10.0 uM.
Data set [39] deals with Sodium-dependent noradrenaline transporter (Homo sapiens) (UniProt P23975). Put plainly: NEUP/H Eurofins SafetyScreen44 (BI). The conditions noted are these: Compound concentration 10.0 uM.
Data set [40] has as its target Glutamate receptor ionotropic, NMDA 2A (Rattus norvegicus) (UniProt Q00959). Nature of the data set: NMDA/R Eurofins SafetyScreen44 (BI). The conditions noted are these: Compound concentration 10.0 uM.
Data set [41] deals with Neuronal acetylcholine receptor; alpha4/beta2 (Homo sapiens) (UniProt P17787+P43681). Nature of the data set: N_NEURO_A4B2 Eurofins SafetyScreen44 (BI). The format is protein-complex assay. The conditions noted are these: filed as agonist, Compound concentration 10.0 uM.
The target in data set [42] is cGMP-inhibited 3',5'-cyclic phosphodiesterase 3A (Homo sapiens) (UniProt Q14432). Nature of the data set: PDE3A Eurofins SafetyScreen44 (BI). As to conditions: Compound concentration 10.0 uM.
The target in data set [43] is 3',5'-cyclic-AMP phosphodiesterase 4D (Homo sapiens) (UniProt Q08499). Nature of the data set: PDE4D2 Eurofins SafetyScreen44 (BI). As to conditions: Compound concentration 10.0 uM.
The target of data set [44] is Sodium-dependent serotonin transporter (Homo sapiens) (UniProt P31645). Put plainly: SLC6A4/H Eurofins SafetyScreen44 (BI). The conditions noted are these: filed as antagonist, Compound concentration 10.0 uM.
In data set [45] the target is Vasopressin V1a receptor (Homo sapiens) (UniProt P37288). Nature of the data set: V1A/HUM Eurofins SafetyScreen44 (BI). As to conditions: Compound concentration 10.0 uM.

Chain of RNA-directed RNA polymerase (O39930 whole entry): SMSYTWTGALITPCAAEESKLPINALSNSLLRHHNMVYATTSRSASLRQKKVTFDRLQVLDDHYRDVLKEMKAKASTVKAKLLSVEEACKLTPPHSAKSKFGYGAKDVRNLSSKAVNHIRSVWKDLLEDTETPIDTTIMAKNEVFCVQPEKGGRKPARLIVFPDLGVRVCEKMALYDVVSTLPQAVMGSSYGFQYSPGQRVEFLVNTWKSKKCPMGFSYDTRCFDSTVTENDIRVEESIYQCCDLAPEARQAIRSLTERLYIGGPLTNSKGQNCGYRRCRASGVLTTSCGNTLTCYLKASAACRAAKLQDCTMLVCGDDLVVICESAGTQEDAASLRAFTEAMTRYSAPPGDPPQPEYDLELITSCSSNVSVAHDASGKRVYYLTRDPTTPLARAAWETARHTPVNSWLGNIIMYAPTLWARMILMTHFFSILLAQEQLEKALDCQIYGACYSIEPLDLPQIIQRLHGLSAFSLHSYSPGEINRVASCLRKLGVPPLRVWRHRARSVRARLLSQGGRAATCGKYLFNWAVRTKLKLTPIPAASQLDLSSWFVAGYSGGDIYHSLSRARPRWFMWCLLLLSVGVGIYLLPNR
Chain of Androgen receptor (Homo sapiens) (P10275 whole entry): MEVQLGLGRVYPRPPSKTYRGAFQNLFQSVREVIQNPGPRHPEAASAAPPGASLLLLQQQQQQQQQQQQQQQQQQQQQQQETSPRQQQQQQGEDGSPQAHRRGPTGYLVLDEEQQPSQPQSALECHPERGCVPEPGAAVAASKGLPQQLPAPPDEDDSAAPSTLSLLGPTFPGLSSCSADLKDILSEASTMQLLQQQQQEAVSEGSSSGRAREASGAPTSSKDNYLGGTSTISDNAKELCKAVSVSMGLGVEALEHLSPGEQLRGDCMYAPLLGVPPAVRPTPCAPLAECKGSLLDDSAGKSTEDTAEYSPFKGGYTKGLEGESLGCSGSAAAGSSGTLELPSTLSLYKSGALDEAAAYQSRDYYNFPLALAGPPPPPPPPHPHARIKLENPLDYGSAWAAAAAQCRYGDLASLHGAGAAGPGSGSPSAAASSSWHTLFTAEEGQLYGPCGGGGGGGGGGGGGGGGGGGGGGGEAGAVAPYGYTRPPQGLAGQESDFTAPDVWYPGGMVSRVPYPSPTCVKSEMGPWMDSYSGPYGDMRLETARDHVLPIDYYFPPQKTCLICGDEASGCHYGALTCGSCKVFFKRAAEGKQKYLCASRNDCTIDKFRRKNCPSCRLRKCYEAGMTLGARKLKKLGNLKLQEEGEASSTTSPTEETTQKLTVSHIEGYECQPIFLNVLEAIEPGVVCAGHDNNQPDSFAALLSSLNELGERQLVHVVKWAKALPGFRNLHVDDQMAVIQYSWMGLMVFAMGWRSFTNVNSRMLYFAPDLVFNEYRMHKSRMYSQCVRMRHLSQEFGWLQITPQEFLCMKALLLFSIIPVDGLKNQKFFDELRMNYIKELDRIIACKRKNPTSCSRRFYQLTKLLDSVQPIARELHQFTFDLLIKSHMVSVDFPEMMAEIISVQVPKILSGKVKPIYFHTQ
Chain of 5-hydroxytryptamine receptor 2B (Homo sapiens) (P41595 whole entry): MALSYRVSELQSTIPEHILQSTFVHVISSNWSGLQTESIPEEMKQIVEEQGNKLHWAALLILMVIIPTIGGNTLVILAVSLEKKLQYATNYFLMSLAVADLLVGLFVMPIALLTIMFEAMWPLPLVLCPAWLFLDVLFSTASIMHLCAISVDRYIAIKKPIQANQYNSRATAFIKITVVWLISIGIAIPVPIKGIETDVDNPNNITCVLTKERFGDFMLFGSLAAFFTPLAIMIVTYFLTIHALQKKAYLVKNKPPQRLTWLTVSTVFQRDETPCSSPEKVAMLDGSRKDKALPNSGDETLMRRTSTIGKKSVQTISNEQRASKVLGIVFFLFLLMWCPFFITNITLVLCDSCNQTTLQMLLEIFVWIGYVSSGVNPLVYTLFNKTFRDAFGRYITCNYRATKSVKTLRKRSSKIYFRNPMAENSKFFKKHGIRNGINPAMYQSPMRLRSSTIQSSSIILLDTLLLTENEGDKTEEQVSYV
Chain of Prostaglandin G/H synthase 2 (Homo sapiens) (P35354 whole entry): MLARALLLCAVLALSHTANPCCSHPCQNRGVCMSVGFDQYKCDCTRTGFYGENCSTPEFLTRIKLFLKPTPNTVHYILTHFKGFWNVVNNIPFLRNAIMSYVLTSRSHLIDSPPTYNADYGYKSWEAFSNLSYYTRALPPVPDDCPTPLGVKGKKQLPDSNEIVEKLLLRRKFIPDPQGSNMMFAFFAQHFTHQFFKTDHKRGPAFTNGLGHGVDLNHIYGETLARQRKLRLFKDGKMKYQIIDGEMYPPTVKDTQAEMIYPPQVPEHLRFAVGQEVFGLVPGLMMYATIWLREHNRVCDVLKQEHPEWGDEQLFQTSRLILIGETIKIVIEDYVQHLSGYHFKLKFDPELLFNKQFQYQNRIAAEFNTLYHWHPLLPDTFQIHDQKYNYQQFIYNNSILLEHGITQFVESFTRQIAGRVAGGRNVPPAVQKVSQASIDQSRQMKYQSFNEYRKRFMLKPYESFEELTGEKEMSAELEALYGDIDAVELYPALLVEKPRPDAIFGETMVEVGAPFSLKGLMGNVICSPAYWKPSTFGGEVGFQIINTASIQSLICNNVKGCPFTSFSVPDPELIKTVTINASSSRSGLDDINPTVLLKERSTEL
Chain of Beta-2 adrenergic receptor (Homo sapiens) (P07550 whole entry, looked up): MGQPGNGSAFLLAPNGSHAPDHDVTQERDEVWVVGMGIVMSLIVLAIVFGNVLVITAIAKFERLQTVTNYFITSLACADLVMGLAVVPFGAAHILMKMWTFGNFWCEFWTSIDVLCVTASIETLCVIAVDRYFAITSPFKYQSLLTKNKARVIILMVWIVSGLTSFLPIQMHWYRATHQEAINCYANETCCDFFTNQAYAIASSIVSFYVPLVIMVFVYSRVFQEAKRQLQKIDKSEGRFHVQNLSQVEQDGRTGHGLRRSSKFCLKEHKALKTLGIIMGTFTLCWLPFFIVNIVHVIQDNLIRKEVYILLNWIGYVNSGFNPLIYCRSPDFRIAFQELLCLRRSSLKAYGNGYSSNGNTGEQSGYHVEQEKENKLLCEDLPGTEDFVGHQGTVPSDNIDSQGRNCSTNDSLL
Chain of Tyrosine-protein kinase Lck (Homo sapiens) (P06239 2-509 limits assumed): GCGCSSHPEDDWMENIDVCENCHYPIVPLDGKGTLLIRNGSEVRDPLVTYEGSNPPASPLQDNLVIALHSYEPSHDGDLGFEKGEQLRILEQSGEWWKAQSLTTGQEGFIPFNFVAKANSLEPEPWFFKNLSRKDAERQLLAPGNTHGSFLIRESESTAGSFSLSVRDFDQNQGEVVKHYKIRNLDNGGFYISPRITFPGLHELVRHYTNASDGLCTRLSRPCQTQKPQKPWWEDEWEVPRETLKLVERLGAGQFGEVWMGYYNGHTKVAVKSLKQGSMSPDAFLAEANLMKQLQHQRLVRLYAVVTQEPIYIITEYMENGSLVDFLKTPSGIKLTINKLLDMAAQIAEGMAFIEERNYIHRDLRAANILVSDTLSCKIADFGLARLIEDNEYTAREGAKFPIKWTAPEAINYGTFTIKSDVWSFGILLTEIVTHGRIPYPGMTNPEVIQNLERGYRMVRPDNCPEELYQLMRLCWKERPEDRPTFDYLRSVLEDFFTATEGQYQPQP
Chain of Endothelin-1 receptor (Homo sapiens) (P25101 whole entry): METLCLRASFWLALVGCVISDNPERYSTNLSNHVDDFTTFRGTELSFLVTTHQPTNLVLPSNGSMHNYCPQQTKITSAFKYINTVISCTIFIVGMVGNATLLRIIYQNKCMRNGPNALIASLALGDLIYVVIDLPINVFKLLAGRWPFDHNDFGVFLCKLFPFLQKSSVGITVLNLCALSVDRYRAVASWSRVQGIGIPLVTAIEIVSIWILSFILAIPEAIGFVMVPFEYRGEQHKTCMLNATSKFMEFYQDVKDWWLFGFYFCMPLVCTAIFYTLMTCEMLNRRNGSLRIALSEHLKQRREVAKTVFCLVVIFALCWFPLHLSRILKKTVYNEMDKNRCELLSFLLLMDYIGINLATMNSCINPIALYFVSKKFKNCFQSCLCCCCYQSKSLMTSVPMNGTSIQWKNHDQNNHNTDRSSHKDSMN
Chain of Adenosine receptor A2a (Homo sapiens) (P29274 whole entry): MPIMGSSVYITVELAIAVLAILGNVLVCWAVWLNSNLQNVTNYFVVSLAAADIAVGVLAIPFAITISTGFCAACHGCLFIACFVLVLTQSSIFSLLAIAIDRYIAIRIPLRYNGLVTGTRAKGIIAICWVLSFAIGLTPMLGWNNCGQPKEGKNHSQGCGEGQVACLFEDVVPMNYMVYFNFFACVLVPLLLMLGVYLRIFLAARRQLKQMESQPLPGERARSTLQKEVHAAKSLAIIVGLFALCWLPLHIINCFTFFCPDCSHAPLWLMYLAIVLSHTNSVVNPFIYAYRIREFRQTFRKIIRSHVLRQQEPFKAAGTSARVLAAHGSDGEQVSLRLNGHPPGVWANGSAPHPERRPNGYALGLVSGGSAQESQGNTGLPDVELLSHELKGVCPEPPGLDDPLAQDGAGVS
Chain of 5-hydroxytryptamine receptor 1A (Homo sapiens) (P08908 whole entry): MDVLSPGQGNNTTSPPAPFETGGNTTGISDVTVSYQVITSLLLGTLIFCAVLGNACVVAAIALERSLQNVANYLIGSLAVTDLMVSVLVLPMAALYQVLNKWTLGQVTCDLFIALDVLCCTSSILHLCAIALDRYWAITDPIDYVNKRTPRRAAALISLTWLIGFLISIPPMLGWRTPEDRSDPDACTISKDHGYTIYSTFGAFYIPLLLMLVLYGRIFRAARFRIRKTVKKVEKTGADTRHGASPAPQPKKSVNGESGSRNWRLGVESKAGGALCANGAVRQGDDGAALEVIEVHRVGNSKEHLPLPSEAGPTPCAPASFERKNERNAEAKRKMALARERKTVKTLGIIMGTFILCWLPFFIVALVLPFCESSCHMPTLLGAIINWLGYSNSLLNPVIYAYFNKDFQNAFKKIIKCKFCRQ
Chain of Sodium channel regulatory subunit beta-1 (Rattus norvegicus) (Q00954 whole entry): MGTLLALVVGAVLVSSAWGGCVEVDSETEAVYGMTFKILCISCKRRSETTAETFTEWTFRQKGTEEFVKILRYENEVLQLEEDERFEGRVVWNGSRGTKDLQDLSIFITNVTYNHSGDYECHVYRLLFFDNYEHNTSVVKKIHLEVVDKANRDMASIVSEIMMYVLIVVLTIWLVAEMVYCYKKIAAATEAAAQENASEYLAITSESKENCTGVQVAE

For the compound `Cn1c(C2(NC(=O)c3ccc(NCC4CCCCC4)nc3)CCC2)nc2ccc(/C=C/C(=O)O)cc21` [BI 7656], in data set [1], the IC50 is on record as > 5 µM (not active).

Turning to `Cn1c(C2(NC(=O)c3ccc4c(C5CCCC5)c(-c5ncc(Br)cn5)n(C)c4c3)CCC2)nc2ccc(/C=C/C(=O)O)cc21` [DELEOBUVIR], the IC50 in data set [1] was 0.019 µM (active). The residual activity is 97% in data set [2]; 72% in [3]; 73% in [4]; 85% in data set [5]; 59% in data set [6]; 116% in data set [7]. Further, the residual activity is 67% in data set [8]; 140% in data set [9]; 105% in data set [10]; 133% in data set [11]; 109% in data set [12]; 100% in data set [13]. Besides, the residual activity in data set [14] was 93%; in data set [15], 107%; in [16], 96%; in data set [17], 100%; in [18] it was 148%; in data set [20], 67%. The residual activity in data set [21] is 12%; in data set [22], 67%; in data set [23] it was 86%; in data set [24], 66%; in data set [25], 47%; in [26] it was 107%. In addition, the residual activity in [27] is 81%; in [28], 81%; in data set [29], 108%; in data set [31], 107%; in data set [32], 117%; in [33] it was 107%. Moreover, the residual activity in data set [34] is 104%; in [35], 101%; in [37], 83%; in data set [38] it was 79%; in data set [39], 76%; in [40], 83%. In addition, the residual activity in data set [41] was 111%; in data set [42], 140%; in data set [43], 130%; in data set [44] it was 117%; in [45], 97%. The activity at 10 µM in data set [19] is reported as 105% (not active); in data set [30] it was 68% (not active); in data set [36] it was 92% (not active).

The values above are taken from ChEMBL document CHEMBL4630904, “Data for DCP probe BI 207127” (2021).
